Source: the NIST ThermoML archive (doi:10.1016/j.jct.2005.03.017)
± gives the expanded uncertainty stated by the source.

Assays:
[1] = Liquid; for mass density: 293.15 K, 101.33 kPa; for Normal boiling temperature: Ebulliometric method (Recirculating still)
[2] = refractive index (Na D-line) (dimensionless); details: 293.15 K; 101.33 kPa; Liquid; Standard Abbe refractometry

O=C1CCCCC1 [cyclohexanone]
mass density [1]: 947.3 ± 0.6 kg/m3
Normal boiling temperature [1]: 155.54 ± 0.1 °C
refractive index [2]: 1.451 ± 0.0008

CCC(=O)O [propanoic acid]
mass density [1]: 992.7 ± 0.5 kg/m3
Normal boiling temperature [1]: 141.0 ± 0.1 °C
refractive index [2]: 1.3811 ± 0.0008

O [water]
Normal boiling temperature [1]: 100.08 ± 0.1 °C
refractive index [2]: 1.3326 ± 0.0008
